Reference: patent publication US11571454B2, “Anticancer peptides that synergistically enhance chemotherapeutic potency” (The Penn State Research Foundation, priority 2017, dated 2023)
Marks after values point to notes of the source that are not given here.

How the values were obtained:
[1] = test system: patient-derived tumor cell spheroids (EOC15, 17, 19); assay: Ex vivo 3D tumor spheroid culture; type: cell-based, human; details: 2 μM cisplatin or 4 μM MAD1 alone, 48 hours
Description: EOC patient-derived cells were cultured in 1:1 MCDB-105: M199 supplemented with 10% FBS and 1% penicillin-streptomycin. EOC patient-derived cells were provided by Dr. Katherine M. Aird under an Institutional Review Board-approved protocol. EOC patient-derived cells were collected from patient ascites fluid after paracentesis procedures. Cells were routinely tested for mycoplasma as previously described. […] Spheroid length and width was calculated using ImageJ. Spheroid volume was calculated using the following equation […] Statistical Methods […] IC50 values are reported as mean values±standard deviation. […] Pore size frequency distribution was completed by ImageJ FIJI on 4 independent cells and n=30 pores from SEM images. […] Individual UV-Vis and CD spectra, as well as fluorescent confocal and TEM micrographs, shown are representative plots from three individual experiments. CD data is with a variance in ellipticity of 0.2 millidegrees at each wavelength. Relative fluorescence data calculated from fluorescent confocal images represents the average of 10 independent measurements±standard deviation. For spheroid volume analysis, a Kruskal-Wallis test and Dunn's multiple comparisons test was performed using GraphPad Prism 8.

[2] = test system: human lung epithelium (NL20); details: read-out: Healthy (IC50, μM) NL20; 48 hours treatment, MTT
[3] = test system: non-cancerous cell lines HUVEC and NL20; assay: MTT cytotoxicity, non-cancerous control cell lines; type: cell-based, human
Description: All cells were cultured using standard culture conditions at 37° C., 5% CO2, and 95% humidity. A549 (CCL-185), OVCAR-3 (HTB-161), T24 (HTB-4), and NCI/ADR-RES were cultured in RPMI-1640 supplemented with 10% v/v fetal bovine serum (FBS), 2 mM L-glutamine (L-Gln), 10,000 units penicillin/mL, 10 mg/mL streptomycin, and 25 μg/mL amphotericin B. HUVEC (PCS-100-010) cells were cultured in Vascular Cell Basal Media (PCS-100-030) supplemented with an Endothelial Cell Growth Kit-VEGF (PCS-100-041) and 10 μg/mL gentamycin in culture flasks coated with 0.1% gelatin by incubating at 37° C. for 15 min. NL20 (CRL-2503) cells were cultured in Ham's F12 supplemented with 1.5 g/L sodium bicarbonate, 2.7 g/L glucose, 2.0 mM L-glutamine, 0.1 mM nonessential amino acids, 0.005 mg/ml insulin, 10 ng/ml epidermal growth factor, 0.001 mg/ml transferrin, 500 ng/ml hydrocortisone and 4% fetal bovine serum, as advised by American Type Culture Collection (ATCC).
Viability was calculated by comparing to an untreated control.
All experiments were performed with n>6.

[4] = test system: human umbilical vein endothelial cells (HUVEC); details: read-out: Healthy (IC50, μM) HUVEC; 48 hours treatment, MTT
[5] = test system: MR S. aureus; details: 24 hours, Gram Positive
[6] = test system: OVCAR-3 cells; details: read-out: IC50, nuclei-counting assay; OVCAR-3, Hoechst nuclei counting
[7] = test system: cleaved caspase 3 in OVCAR-3 cells; assay: Western blot of cleaved caspase 3; type: cell-based, human; details: 1× and 2× IC50; activation at 48 hours
Description: For western blots, OVCAR-3 cells were first seeded at 2.5×10^5 cells/well in a 6 well plate and allowed to adhere overnight. Cells were then treated in 5% FBS media with 1×IC50 and 2×IC50, with untreated controls of media alone. Following 2 or 48 hours of treatment, the whole-cell protein lysates were prepared in RIPA buffer (50 mM Tris.NaOH at pH 7.4, 150 mM NaCl, 1% IGEPAL-CA630 [octylphenoxy poly(ethyleneoxy)ethanol], 0.5% sodium deoxycholate, 0.1% SDS, 2 mM EDTA, protease/phosphatase inhibitors) by first scraping the bottom of the well and subsequently briefly sonicated. The lysates were centrifuged to clear cellular debris, separated by 12% SDS-PAGE, and transferred to a 0.2 μm Nitrocellulose Membrane using the Bio-Rad Trans-Blot Turbo transfer machine (Bio-Rad, Hercules, Calif., USA) according to the manufacturer's protocols. The blot was incubated in 5% Immunoanalytical Grade Non-fat Dry Milk for 1 hour, followed by incubation with antibodies against cleaved caspase-3 (1:1000) or actin (1:1000) at 4° C. for 16 hours. The blots were then incubated with 1:2000 dilution in 1×BSA of anti-mouse or anti-rabbit antibodies for 1 hour before washing with TBST three times for 15 min. and developing using Pierce ECL system according to the manufacturer's protocol.

[8] = test system: OVCAR-3 cells; assay: TMRE-staining flow cytometry (mitochondrial transmembrane potential); type: cell-based, human; details: 48 hour incubation, varying concentrations
Description: (5 μM). Cells were incubated for 30 min. with 200 nM TMRE, washed twice with PBS, and analyzed for fluorescence by flow cytometry on a BD […] (BD Biosciences, Franklin Lakes, N.J.).

[9] = test system: E. coli; details: 24 hours, Gram Negative
[10] = test system: OVCAR-3 cells; assay: Annexin V-PI flow cytometry apoptosis assay; type: cell-based, human; details: IC50 of MAD1 (14 μM)
Description: OVCAR-3 cells were first seeded at 2×10^5 cells/well in 12 well plates. The cells were then allowed to adhere overnight. […] Wells were left in 5% serum media for negative and compensation controls. Cells were then trypsinized, washed in cold PBS, and centrifuged at 3,000 rpm at 15° C. for 5 min. After the supernatant was aspirated, the cells were resuspended in 100 μL of Annexin V Binding Buffer. In the dark, 5 μL of FITC Annexin V and 10 μL of Propidium Iodine solution were added to the cells, with compensation controls of a negative control with no staining, a FITC Annexin V only control, and a PI only control. The cells were then vortexed gently to combine and allowed to incubate for 15 min. at room temperature. 400 μL of Annexin V Binding Buffer was then added to each tube and stored on ice prior to analyzing by flow cytometry.
Flow cytometry was conducted on a LSRFortessa Flow Cytometer (BD Biosciences, Franklin Lakes, N.J.) using 488 nm and 532 nm lasers for FITC and PE-Texas Red signals to detect Annexin V and PI, respectively. Compensation was completed for 10,000 cells, and experiments were conducted over 20,000 cells.

[11] = test system: polymicrobial panel (six bacterial lines); assay: Antimicrobial activity against polymicrobial panel; type: cell-based
[12] = test system: P. aeruginosa; details: 24 hours, Gram Negative

H-KRWHWWRRHWVVW-NH2 [MAD1]
spheroid size, single agent [1]: minimal reduction in size | IC50 [2]: 76.9 µM | toxicity towards non-cancerous control cell lines [3]: well tolerated | IC50 [4]: > 100 µM | MIC (μM) MR S. aureus [5]: >80^a μM | IC50 [6]: 3.3 µM | cleaved caspase 3 (western blot) [7]: presence of cleaved caspase 3 | mitochondrial integrity (TMRE fluorescence) [8]: generally unchanged | MIC (μM) E. coli [9]: 25 µM | cell necrosis (% of population) ([10]; 2 hours): 16% | late apoptotic phenotype (% of cells) ([10]; 2 hours): 65% | early apoptotic stage (% of cells) ([10]; 24 hours): 19% | late apoptotic stage (% of cells) ([10]; 24 hours): 77% | antimicrobial activity against polymicrobial panel [11]: bactericidal activity | MIC (μM) P. aeruginosa [12]: 50^a μM
